In the supplement of paper PMC10307832:

Experiments:
Assay in all cases: relative viability (nuclei count vs DMSO), 5 days (fraction); higher = more cells survive
NCI-H3122 = test system: NCI-H3122
Summary of the method: (§1)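 The day after seeding in 1536-well plates, lung cancer cell lines were treated by pin tool with a single drug, or with a fixed anchor-drug dose together with five library-drug doses (not always all listed) in √10 steps. After 5 days, a combined fix-and-stain solution (final 0.05% Triton X-100, 1% formaldehyde, 1 ug/ml Hoechst) was added. Nuclei counted on 4× images gave relative viability as treated counts over vehicle counts, reported as the median of duplicate plates.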

LCLC-97TM1 = test system: LCLC-97TM1
Summary of the method: as §1

NCI-H727 = test system: NCI-H727
Summary of the method: as §1

CAL-12T = test system: CAL-12T
Summary of the method: as §1

NCI-H2405 = test system: NCI-H2405
Summary of the method: as §1

NCI-H1650 = test system: NCI-H1650
Summary of the method: as §1

SK-LU-1 = test system: SK-LU-1
Summary of the method: as §1

NCI-H647 = test system: NCI-H647
Summary of the method: as §1

LXF-289 = test system: LXF-289
Summary of the method: as §1

NCI-H2087 = test system: NCI-H2087
Summary of the method: as §1

RERF-LC-KJ = test system: RERF-LC-KJ
Summary of the method: as §1

BEN = test system: BEN
Summary of the method: as §1

NCI-H2023 = test system: NCI-H2023
Summary of the method: as §1

201T = test system: 201T
Summary of the method: as §1

NCI-H1355 = test system: NCI-H1355
Summary of the method: as §1

HCC-827 = test system: HCC-827
Summary of the method: as §1

NCI-H322M = test system: NCI-H322M
Summary of the method: as §1

HCC-44 = test system: HCC-44
Summary of the method: as §1

HOP-62 = test system: HOP-62
Summary of the method: as §1

NCI-H1437 = test system: NCI-H1437
Summary of the method: as §1

LCLC-103H = test system: LCLC-103H
Summary of the method: as §1

NCI-H2228 = test system: NCI-H2228
Summary of the method: as §1

CC(C)Oc1cc(Nc2nc(N[C@@H](C)c3ccc(F)cn3)ncc2Cl)n[nH]1 [AZ23] + CC(C)C[C@H](NC(=O)[C@H](Cc1ccccc1)NC(=O)c1cnccn1)B(O)O [Bortezomib] (partner 0.002 µM)
relative viability (NCI-H3122; first compound 0.01 µM): 1.04 | relative viability (NCI-H3122; first compound 0.03162 µM): 1.02 | relative viability (NCI-H3122; first compound 0.3162 µM): 1.12 | relative viability (LCLC-97TM1; first compound 0.01 µM): 0.277 | relative viability (LCLC-97TM1; first compound 0.03162 µM): 1 | relative viability (LCLC-97TM1; first compound 0.3162 µM): 0.755 | relative viability (NCI-H727; first compound 0.01 µM): 0.855 | relative viability (NCI-H727; first compound 0.03162 µM): 0.855 | relative viability (NCI-H727; first compound 0.3162 µM): 0.867 | relative viability (CAL-12T; first compound 0.03162 µM): 1.01 | relative viability (CAL-12T; first compound 0.3162 µM): 0.876 | relative viability (NCI-H2405; first compound 0.01 µM): 0.963 | relative viability (NCI-H2405; first compound 0.03162 µM): 1.02 | relative viability (NCI-H2405; first compound 0.3162 µM): 0.948 | relative viability (NCI-H1650; first compound 0.01 µM): 0.189 | relative viability (NCI-H1650; first compound 0.03162 µM): 0.242 | relative viability (NCI-H1650; first compound 0.3162 µM): 0.187 | relative viability (SK-LU-1; first compound 0.03162 µM): 1.33 | relative viability (SK-LU-1; first compound 0.3162 µM): 1.26 | relative viability (NCI-H647; first compound 0.01 µM): 1.41 | relative viability (NCI-H647; first compound 0.03162 µM): 1.16 | relative viability (NCI-H647; first compound 0.3162 µM): 1.12 | relative viability (LXF-289; first compound 0.01 µM): 1.11 | relative viability (LXF-289; first compound 0.03162 µM): 1.05 | relative viability (LXF-289; first compound 0.3162 µM): 0.979 | relative viability (NCI-H2087; first compound 0.01 µM): 1.3 | relative viability (NCI-H2087; first compound 0.03162 µM): 0.962 | relative viability (NCI-H2087; first compound 0.3162 µM): 0.778 | relative viability (RERF-LC-KJ; first compound 0.01 µM): 1.23 | relative viability (RERF-LC-KJ; first compound 0.03162 µM): 1.31 | relative viability (RERF-LC-KJ; first compound 0.3162 µM): 1.17 | relative viability (BEN; first compound 0.01 µM): 0.817 | relative viability (BEN; first compound 0.03162 µM): 1.08 | relative viability (BEN; first compound 0.3162 µM): 0.867 | relative viability (NCI-H2023; first compound 0.03162 µM): 0.959 | relative viability (NCI-H2023; first compound 0.3162 µM): 1.22 | relative viability (201T; first compound 0.01 µM): 1.18 | relative viability (201T; first compound 0.03162 µM): 1.07 | relative viability (201T; first compound 0.3162 µM): 1.13 | relative viability (NCI-H1355; first compound 0.01 µM): 1.33 | relative viability (NCI-H1355; first compound 0.03162 µM): 1.17 | relative viability (NCI-H1355; first compound 0.3162 µM): 1.26 | relative viability (HCC-827; first compound 0.01 µM): 1.16 | relative viability (HCC-827; first compound 0.03162 µM): 1.06 | relative viability (HCC-827; first compound 0.3162 µM): 1.08 | relative viability (NCI-H322M; first compound 0.01 µM): 1.2 | relative viability (NCI-H322M; first compound 0.03162 µM): 1.32 | relative viability (NCI-H322M; first compound 0.3162 µM): 1.19 | relative viability (HCC-44; first compound 0.01 µM): 0.88 | relative viability (HCC-44; first compound 0.03162 µM): 1.07 | relative viability (HCC-44; first compound 0.3162 µM): 0.912 | relative viability (HOP-62; first compound 0.01 µM): 0.821 | relative viability (HOP-62; first compound 0.03162 µM): 0.517 | relative viability (HOP-62; first compound 0.3162 µM): 0.867 | relative viability (NCI-H1437; first compound 0.01 µM): 0.541 | relative viability (NCI-H1437; first compound 0.03162 µM): 0.484 | relative viability (NCI-H1437; first compound 0.3162 µM): 0.569 | relative viability (LCLC-103H; first compound 0.01 µM): 1.01 | relative viability (LCLC-103H; first compound 0.03162 µM): 1.26 | relative viability (LCLC-103H; first compound 0.3162 µM): 1.14 | relative viability (NCI-H2228; first compound 0.01 µM): 1.49 | relative viability (NCI-H2228; first compound 0.03162 µM): 1.19 | relative viability (NCI-H2228; first compound 0.3162 µM): 0.84

CC(C)Oc1cc(Nc2nc(N[C@@H](C)c3ccc(F)cn3)ncc2Cl)n[nH]1 [AZ23] + C[C@@H](Oc1cc(-c2cnn(C3CCNCC3)c2)cnc1N)c1c(Cl)ccc(F)c1Cl [Crizotinib] (partner 1 µM)
relative viability (NCI-H3122; first compound 0.01 µM): 0.28 | relative viability (NCI-H3122; first compound 0.03162 µM): 0.262 | relative viability (NCI-H3122; first compound 0.3162 µM): 0.305 | relative viability (LCLC-97TM1; first compound 0.01 µM): 0.424 | relative viability (LCLC-97TM1; first compound 0.03162 µM): 0.527 | relative viability (LCLC-97TM1; first compound 0.3162 µM): 0.305 | relative viability (NCI-H727; first compound 0.01 µM): 1.01 | relative viability (NCI-H727; first compound 0.03162 µM): 1.14 | relative viability (NCI-H727; first compound 0.3162 µM): 0.648 | relative viability (CAL-12T; first compound 0.01 µM): 0.324 | relative viability (CAL-12T; first compound 0.03162 µM): 0.759 | relative viability (CAL-12T; first compound 0.3162 µM): 0.583 | relative viability (NCI-H2405; first compound 0.01 µM): 0.825 | relative viability (NCI-H2405; first compound 0.03162 µM): 0.904 | relative viability (NCI-H2405; first compound 0.3162 µM): 0.854 | relative viability (NCI-H1650; first compound 0.01 µM): 0.863 | relative viability (NCI-H1650; first compound 0.03162 µM): 1.4 | relative viability (NCI-H1650; first compound 0.3162 µM): 0.984 | relative viability (SK-LU-1; first compound 0.01 µM): 0.94 | relative viability (SK-LU-1; first compound 0.03162 µM): 1.05 | relative viability (SK-LU-1; first compound 0.3162 µM): 0.978 | relative viability (NCI-H647; first compound 0.01 µM): 1.71 | relative viability (NCI-H647; first compound 0.03162 µM): 1.37 | relative viability (NCI-H647; first compound 0.3162 µM): 1.3 | relative viability (LXF-289; first compound 0.01 µM): 0.862 | relative viability (LXF-289; first compound 0.03162 µM): 0.859 | relative viability (LXF-289; first compound 0.3162 µM): 0.79 | relative viability (NCI-H2087; first compound 0.01 µM): 1.16 | relative viability (NCI-H2087; first compound 0.03162 µM): 1.11 | relative viability (NCI-H2087; first compound 0.3162 µM): 1.04 | relative viability (RERF-LC-KJ; first compound 0.01 µM): 1 | relative viability (RERF-LC-KJ; first compound 0.03162 µM): 1 | relative viability (RERF-LC-KJ; first compound 0.3162 µM): 0.915 | relative viability (BEN; first compound 0.01 µM): 0.855 | relative viability (BEN; first compound 0.03162 µM): 1.09 | relative viability (BEN; first compound 0.3162 µM): 0.968 | relative viability (NCI-H2023; first compound 0.03162 µM): 0.825 | relative viability (NCI-H2023; first compound 0.3162 µM): 0.616 | relative viability (201T; first compound 0.01 µM): 1.06 | relative viability (201T; first compound 0.03162 µM): 1.05 | relative viability (201T; first compound 0.3162 µM): 1.01 | relative viability (NCI-H1355; first compound 0.01 µM): 1.19 | relative viability (NCI-H1355; first compound 0.03162 µM): 1.11 | relative viability (NCI-H1355; first compound 0.3162 µM): 1.09 | relative viability (HCC-827; first compound 0.01 µM): 0.993 | relative viability (HCC-827; first compound 0.03162 µM): 1.03 | relative viability (HCC-827; first compound 0.3162 µM): 0.881 | relative viability (NCI-H322M; first compound 0.01 µM): 1.08 | relative viability (NCI-H322M; first compound 0.03162 µM): 1.14 | relative viability (NCI-H322M; first compound 0.3162 µM): 0.939 | relative viability (HCC-44; first compound 0.01 µM): 0.934 | relative viability (HCC-44; first compound 0.03162 µM): 0.952 | relative viability (HCC-44; first compound 0.3162 µM): 0.826 | relative viability (HOP-62; first compound 0.01 µM): 0.992 | relative viability (HOP-62; first compound 0.03162 µM): 0.912 | relative viability (HOP-62; first compound 0.3162 µM): 1.08 | relative viability (NCI-H1437; first compound 0.01 µM): 1.21 | relative viability (NCI-H1437; first compound 0.03162 µM): 0.996 | relative viability (NCI-H1437; first compound 0.3162 µM): 1.03 | relative viability (LCLC-103H; first compound 0.01 µM): 1.13 | relative viability (LCLC-103H; first compound 0.03162 µM): 1.13 | relative viability (LCLC-103H; first compound 0.3162 µM): 1.13 | relative viability (NCI-H2228; first compound 0.01 µM): 0.64 | relative viability (NCI-H2228; first compound 0.03162 µM): 0.449 | relative viability (NCI-H2228; first compound 0.3162 µM): 0.33
